Experimental data taken from patent US20080161248A1, “Methods and Compositions for Therapeutic Treatment” (priority 2006, published 2008).

Tests used:
[1] = tested on: LEW responders activated with Con A (lymphocyte proliferation); experiment: Con A stimulated proliferation of spleen cells of treated Lewis rats; type: cell-based, rat; conditions: LNS 0694 i.p. 30 minutes prior to FK506 1 mg/kg i.v.
Method: Animals: 8-9 weeks-old Lewis and Brown Norway male rats were obtained from Charles River Laboratories. […] Treatment: Lewis rats were treated with different single doses of LNS 0694i.p. 30 minutes prior to single i.v. injections of tacrolimus at a concentration of 1 mg/kg as described in the table below. Spleens were collected at 4 hr after administration of FK506 for use in the in vitro mixed lymphocyte reaction (MLR) and Con A assays. […] Varying numbers of responder cells were mixed with a constant number of stimulators (105) in 96-well, U-bottom cell culture plates to give a final responder:stimulator (R:S) ratio of 10:1,5: 1, 1:1 and 0.5:1 in 200 μl CM. Control wells for each cell suspension contained 10^5 responders alone in medium and 10^5 pooled, irradiated stimulators alone in medium (separate wells). For a positive proliferative response, each responder (10^5) was treated with 2.5 μg/ml Con A. […] Each well was pulsed with 1 μCi tritiated thymidine for 18±2 hours before automatic harvesting and analysis in a liquid scintillation counter.

[2] = Pharmacokinetics of FK506 i.v. with Quercetin i.p. in rats; type: in vivo, rat
Method: Animals: 8-9 weeks-old rats, e.g., Lewis and Brown Norway male rats, can be used. General procedures for animal care and housing are in accordance with the National Research Council (NRC) Guide for the Care and Use of Laboratory Animals (1996) and the Animal Welfare Standards incorporated in 9 CFR Part 3, 1991.
Treatment: Rats are treated as i.v with FK506 and i.p. with Quercetin at two different concentrations, 500 mg/kg or 200 mg/kg. Subsets of 3 Lewis rats per group are used for blood sampling at each time point (Groups 2-5) at described in the table below.
Plasma Blood Sample Collection: Whole blood is collected from the retro-orbital sinus under 60:40 CO2:O2 anesthesia using EDTA as the anticoagulant. Sample collection is performed at 9 time points: 5, 15, and 30 min and 1, 2, 4, 6, 8, & 24 hr after administration of FK 506. Three samples were collected from each rat per group (Groups 2-5). The first 2 samples are collected under anesthesia, after which the animal regained consciousness and is retained until the next collection interval. The third/last sample is also collected under anesthesia, however the animal is euthanatized prior to anesthetic recovery.
Whole blood samples are placed on dry ice after collection and stored frozen at […] (±10° C.) until analysis.
Drug levels are determined in collected samples using bioanalytical methods developed to detect parent drug levels known in the art.

[3] = tested on: LEW responder splenocytes with irradiated BN stimulators (lymphocyte proliferation); experiment: Mixed lymphocyte reaction (MLR) with spleen cells of treated Lewis rats; type: cell-based, rat; conditions: LNS 0694 50, 150, 300 mg/kg i.p. 30 minutes prior to FK506 1 mg/kg i.v.
Method: Animals: 8-9 weeks-old Lewis and Brown Norway male rats were obtained from Charles River Laboratories. […] Treatment: Lewis rats were treated with different single doses of LNS 0694i.p. 30 minutes prior to single i.v. injections of tacrolimus at a concentration of 1 mg/kg as described in the table below. Spleens were collected at 4 hr after administration of FK506 for use in the in vitro mixed lymphocyte reaction (MLR) and Con A assays. […] Mixed lymphocyte reactions: A single cell suspension of the spleen of each rat on test (LEW, responder) was prepared with a Dounce homogenizer and wash-medium. The cell suspension was depleted of red blood cells (treatment with NH4CL/Tris buffer) and washed twice with wash medium before resuspending in complete medium (CM; […] A single cell suspension of splenocytes from five Brown Norway rats (BN, stimulators) was prepared with the same method. The BN splenocytes were pooled and irradiated with 1,500-2,000 rad (cesium source) before use. Varying numbers of responder cells were mixed with a constant number of stimulators (105) in 96-well, U-bottom cell culture plates to give a final responder:stimulator (R:S) ratio of 10:1,5: 1, 1:1 and 0.5:1 in 200 μl CM. […] The results of the MLR assays [thymidine incorporation as counts per minute (CPM)] are expressed as mean ±SD.

[4] = in vivo; cited from earlier work
[5] = tested on: mouse spleen cells, response to LPS; experiment: In vitro LPS assay on spleen cells; type: cell-based; conditions: high ([…]10^6 cells/well) and low (8×10^5 cells/well) cell concentration
Excerpt: (§1) Animals: 8-9 weeks-old Lewis and Brown Norway male rats were obtained from Charles River Laboratories. General procedures for animal care and housing was in accordance with the National Research Council (NRC) Guide for the Care and Use of Laboratory Animals (1996) and the Animal Welfare Standards incorporated in 9 CFR Part 3, 1991.
(§2) Spleens were collected for use in in vitro Con A and LPS assays.
FIGS. 10 and 11 show the effect of quercetin and tacrolimus on response of mouse spleen cells to LPS at a high (1.6×10^6 cells/well) and low (8×10^5 cells/well) cell concentration, respectively.

[6] = tested on: mouse spleen cells, response to Con A; experiment: In vitro Con A assay on spleen cells; type: cell-based
Excerpt: as §1, §2
Results: FIGS. 8 and 9 show the effect of quercetin and tacrolimus on response of mouse spleen cells to Con A at a high (1.6×10^6 cells/well) and low (8×10^5 cells/well) cell concentration, respectively.
Spleen cells were treated with Con A in the presence of vehicle, tacrolimus, quercetin or two different concentrations of tacrolimus (10^−8.2 and 10^−8.5 M) and increasing doses of quercetin at a high cell concentration (FIG. 14) or at a low cell concentration (FIG. 15). […] There was no significance difference between the effect of quercetin on tacrolimus induced cell suppression in vitro at the different concentrations used for quercetin.

[7] = Pharmacokinetics of FK 506 i.v. with LNS 0694 i.p. in Lewis rats; type: in vivo, rat; conditions: male Lewis rats; FK 506 1 mg/kg i.v.; LNS 0694 i.p. different doses
Method: as §1
Treatment: Lewis rats were treated as described in example 3. Subsets of 3 Lewis rats per group were used for blood sampling at each time point (Groups 2-5) at described in the table below.
Plasma Blood Sample Collection: Whole blood was collected from the retro-orbital sinus under 60:40 CO2:O2 anesthesia using EDTA as the anticoagulant. Sample collection was performed at 9 time points: 5, 15, and 30 min and 1, 2, 4, 6, 8, & 24 hr after administration of FK 506. Three samples were collected from each rat per group (Groups 2-5). The first 2 samples were collected under anesthesia, after which the animal regained consciousness and was retained until the next collection interval. […]
Drug levels were determined in collected whole blood samples using a bioanalytical method developed to detect parent drug levels.
Results: The pharmacokinetics parameters of FK 506 were determined in male Lewis rats after 1 mg/kg i.v. administration alone or in combination with i.p, administration of different doses of LNS 0694 (See FIG. 16).

[8] = tested on: mdr1a knockout mice; conditions: cited from earlier work
[9] = higher 200 mg/kg quercetin dose i.p.

Row | Compound | effect on FK 506 inhibitory effect, responders activated with Con A [1] | effect on peripheral bioavailability of FK506 ([2]; Quercetin i.p. different doses) | effect on calculated AUC (0-infinity) of FK 506 ([2]; Quercetin i.p. different doses, vs control group) | effect on Cmax of FK 506 [2, 9] | effect on Vd of FK 506 [2, 9] | effect on clearance of FK 506 [2, 9] | effect on FK 506 inhibitory effect in MLR [3] | serum half-life [4] [h] | effect on response of spleen cells to LPS (proliferation) [5] | effect on tacrolimus induced cell suppression in vitro ([6]; Con A, tacrolimus 10^-8.2 and 10^-8.5 M, increasing doses of quercetin) | effect on response of spleen cells to Con A (proliferation) ([6]; high ([…]10^6 cells/well) and low (8×10^5 cells/well) cell concentration) | effect on peripheral bioavailability of FK506 [7] | incidence of fetal cleft palate [8] [%]
1 | O=c1c(O)c(-c2ccc(O)c(O)c2)oc2cc(O)cc(O)c12 [Quercetin, quercetin] | increased FK 506 inhibitory effect | increases the peripheral bioavailability of FK506 in a dose dependent manner | increases | increase | decrease | decrease | increased FK 506 inhibitory effect in a dose-dependent manner | 19 to 25 | no significant effect | did not impair | no significant effect | increases the peripheral bioavailability of FK506 in a dose dependent manner | 
2 | CC[C@H](C)[C@H]1O[C@]2(C=C[C@@H]1C)C[C@@H]1C[C@@H](C/C=C(\C)[C@@H](O[C@H]3C[C@H](OC)[C@@H](O[C@H]4C[C@H](OC)[C@@H](O)[C@H](C)O4)[C@H](C)O3)[C@@H](C)/C=C/C=C3\CO[C@@H]4[C@H](O)C(C)=C[C@@H](C(=O)O1)[C@]34O)O2 [avermectin] |  |  |  |  |  |  |  |  |  |  |  |  | 100
